Source: patent US20050070510A1, “Substituted tetracycline compounds as synergistic antifungal agents” (Paratek Pharmaceuticals, Inc., priority 2001, published 2005)

System: COS-1 cells
Assay: In vitro mammalian cytotoxicity assay (Resazurin)

Row | Structure (SMILES) | In Vitro Cytotoxicity
1 | CN(C)[C@@H]1C(O)=C(C(N)=O)C(=O)[C@@]2(C#N)C(O)=C3C(=O)c4c(ccc(/C=C/c5ccc(F)cc5)c4O)[C@H](N)[C@@]3(N)[C@H](O)[C@@]12N [CE] | ** (toxicities less than 25 μg/mL are represented by **)
2 | CN(C)[C@@H]1C(O)=C(C(N)=O)C(=O)[C@@]2(C#N)C(O)=C3C(=O)c4c(ccc(-c5ccccc5)c4O)C(N)[C@@]3(N)[C@H](O)[C@@]12N (some centres unmarked) [AX] | ** (toxicities less than 25 μg/mL are represented by **)
3 | CN(C)[C@@H]1C(O)=C(C(N)=O)C(=O)[C@@]2(C#N)C(O)=C3C(=O)c4c(O)ccc(-c5ccc(CNCCc6ccc(Cl)cc6)cc5)c4C[C@@]3(N)C[C@@]12N [OF] | ** (toxicities less than 25 μg/mL are represented by **)
4 | CN(C)[C@@H]1C(O)=C(C(N)=O)C(=O)[C@@]2(C#N)C(O)=C3C(=O)c4c(O)ccc(-c5ccc(CNc6cccnc6)cc5)c4C[C@@]3(N)C[C@@]12N [UO] | ** (toxicities less than 25 μg/mL are represented by **)
5 | CN(C)[C@@H]1C(O)=C(C(N)=O)C(=O)[C@@]2(C#N)C(O)=C3C(=O)c4c(O)cccc4[C@H](OSC(F)(F)C(F)(F)F)[C@@]3(N)[C@H](O)[C@@]12N [AS] | ** (toxicities less than 25 μg/mL are represented by **)
6 | COCCOC(=O)Nc1ccc(-c2ccc(O)c3c2C[C@@]2(N)C[C@@]4(N)[C@H](N(C)C)C(O)=C(C(N)=O)C(=O)[C@@]4(C#N)C(O)=C2C3=O)cc1 [PY] | * (toxicities greater than >25 μg/ml are represented by *)
7 | Cc1cccnc1-c1ccc(O)c2c1C[C@@]1(N)C[C@@]3(N)[C@H](N(C)C)C(O)=C(C(N)=O)C(=O)[C@@]3(C#N)C(O)=C1C2=O [UW] | * (toxicities greater than >25 μg/ml are represented by *)
8 | CN(C)[C@@H]1C(O)=C(C(N)=O)C(=O)[C@@]2(C#N)C(O)=C3C(=O)c4c(O)c(-c5ccccc5)cc(-c5ccccc5)c4[C@H](N)[C@@]3(N)[C@H](O)[C@@]12N [PX] | ** (toxicities less than 25 μg/mL are represented by **)
9 | CN(C)[C@@H]1C(O)=C(C(N)=O)C(=O)[C@@]2(C#N)C(O)=C3C(=O)c4c(O)ccc(-c5ccc(NC(=O)OC(C)(C)C)cc5)c4C[C@@]3(N)C[C@@]12N [PF] | ** (toxicities less than 25 μg/mL are represented by **)
10 | CCCC/C(Cl)=C/c1ccc(O)c2c1C[C@@]1(N)C[C@@]3(N)[C@H](N(C)C)C(O)=C(C(N)=O)C(=O)[C@@]3(C#N)C(O)=C1C2=O [IH] | ** (toxicities less than 25 μg/mL are represented by **)
11 | CN(C)c1cc(C#Cc2cccnc2)c(O)c2c1C[C@@]1(N)C[C@@]3(N)[C@H](N(C)C)C(O)=C(C(N)=O)C(=O)[C@@]3(C#N)C(O)=C1C2=O [JH] | ** (toxicities less than 25 μg/mL are represented by **)
12 | CN(C)CCN(C)Cc1ccc(-c2cc(N(C)C)c3c(c2O)C(=O)C2=C(O)[C@]4(C#N)C(=O)C(C(N)=O)=C(O)[C@@H](N(C)C)[C@]4(N)C[C@]2(N)C3)s1 [ST] | * (toxicities greater than >25 μg/ml are represented by *)
13 | CC(=O)OCCCC(C)(C)c1ccc2c(c1O)C(=O)C1=C(O)[C@]3(C#N)C(=O)C(C(N)=O)=C(O)[C@@H](N(C)C)[C@]3(N)[C@@H](O)[C@]1(N)[C@H]2N [BA] | ** (toxicities less than 25 μg/mL are represented by **)
14 | CN(C)c1cc(-c2ccc(CN3CCCC3)o2)c(O)c2c1C[C@@]1(N)C[C@@]3(N)[C@H](N(C)C)C(O)=C(C(N)=O)C(=O)[C@@]3(C#N)C(O)=C1C2=O [SQ] | * (toxicities greater than >25 μg/ml are represented by *)
15 | COc1ccc(-c2ccc(O)c3c2C[C@@]2(N)C[C@@]4(N)[C@H](N(C)C)C(O)=C(C(N)=O)C(=O)[C@@]4(C#N)C(O)=C2C3=O)cc1CN [QD] | * (toxicities greater than >25 μg/ml are represented by *)
16 | CC(=O)c1ccc(/C=C2\c3cccc(O)c3C(=O)C3=C(O)[C@]4(C#N)C(=O)C(C(N)=O)=C(O)[C@@H](N(C)C)[C@]4(N)[C@@H](O)[C@@]32N)cc1 [DE] | ** (toxicities less than 25 μg/mL are represented by **)
17 | CCN(CC)Cc1ccc(OC)c(-c2ccc(O)c3c2C[C@@]2(N)C[C@@]4(N)[C@H](N(C)C)C(O)=C(C(N)=O)C(=O)[C@@]4(C#N)C(O)=C2C3=O)c1 [LR] | * (toxicities greater than >25 μg/ml are represented by *)
18 | CCCCCC(=O)c1ccc(O)c2c1C[C@@]1(N)C[C@@]3(N)[C@H](N(C)C)C(O)=C(C(N)=O)C(=O)[C@@]3(C#N)C(O)=C1C2=O [TT] | ** (toxicities less than 25 μg/mL are represented by **)
19 | CN(C)[C@@H]1C(O)=C(C(N)=O)C(=O)[C@@]2(C#N)C(O)=C3C(=O)c4c(O)ccc(-c5cnccn5)c4C[C@@]3(N)C[C@@]12N [UX] | * (toxicities greater than >25 μg/ml are represented by *)
20 | C=CCCNC(=O)NCc1cc(N(C)C)c2c(c1O)C(=O)C1=C(O)[C@]3(C#N)C(=O)C(C(N)=O)=C(O)[C@@H](N(C)C)[C@]3(N)C[C@]1(N)C2 [MD] | * (toxicities greater than >25 μg/ml are represented by *)
21 | CN(C)[C@@H]1C(O)=C(C(N)=O)C(=O)[C@@]2(C#N)C(O)=C3C(=O)c4c(ccc(NC5CCCC5)c4O)[C@H](N)[C@@]3(N)[C@H]([S+](N)[O-])[C@@]12N (some centres unmarked) [CA] | ** (toxicities less than 25 μg/mL are represented by **)

Row | Structure (SMILES) | In Vitro Cytotoxicity
22 | CC(=O)C(N)c1cc(C(C)(C)C)c(O)c2c1C[C@@]1(N)C[C@@]3(N)[C@H](N(C)C)C(O)=C(C(N)=O)C(=O)[C@@]3(C#N)C(O)=C1C2=O (some centres unmarked) [NN] | * (toxicities greater than >25 μg/ml are represented by *)
23 | Cc1ccc(S(=O)(=O)NC(=O)C#Cc2cc(N(C)C)c3c(c2O)C(=O)C2=C(O)[C@]4(C#N)C(=O)C(C(N)=O)=C(O)[C@@H](N(C)C)[C@]4(N)C[C@]2(N)C3)cc1 [JJ] | * (toxicities greater than >25 μg/ml are represented by *)
24 | CCC(=O)O[C@H]1[C@@]2(N)C(=C(O)[C@]3(C#N)C(=O)C(C(N)=O)=C(O)[C@@H](N(C)C)[C@]13N)C(=O)c1c(ccc(C(C)(C)C)c1O)[C@@H]2N [BC] | ** (toxicities less than 25 μg/mL are represented by **)
25 | CN(C)[C@@H]1C(O)=C(C(N)=O)C(=O)[C@@]2(C#N)C(O)=C3C(=O)c4c(O)ccc(-c5ccco5)c4C[C@@]3(N)C[C@@]12N [GO] | ** (toxicities less than 25 μg/mL are represented by **)
26 | CC(C)COC(=O)NCc1ccc(O)c2c1C[C@@]1(N)C[C@@]3(N)[C@H](N(C)C)C(O)=C(C(N)=O)C(=O)[C@@]3(C#N)C(O)=C1C2=O [NO] | ** (toxicities less than 25 μg/mL are represented by **)
27 | CN(C)[C@@H]1C(O)=C(C(N)=O)C(=O)[C@@]2(C#N)C(O)=C3C(=O)c4c(O)ccc(-c5ccc(Cl)o5)c4C[C@@]3(N)C[C@@]12N [FV] | ** (toxicities less than 25 μg/mL are represented by **)
28 | CN(C)[C@@H]1C(O)=C(C(N)=O)C(=O)[C@@]2(C#N)C(O)=C3C(=O)c4c(O)ccc(CNC(=O)OCC(C)(C)C)c4C[C@@]3(N)C[C@@]12N [NP] | ** (toxicities less than 25 μg/mL are represented by **)
29 | CCCCCN(CCCCC)Cc1cc(N(C)C)c2c(c1O)C(=O)C1=C(O)[C@]3(C#N)C(=O)C(C(N)=O)=C(O)[C@@H](N(C)C)[C@]3(N)C[C@]1(N)C2 [MP] | ** (toxicities less than 25 μg/mL are represented by **)
30 | CCOC(=O)Nc1cc(N(C)C)c2c(c1O)C(=O)C1=C(O)[C@]3(C#N)C(=O)C(C(N)=O)=C(O)[C@@H](N(C)C)[C@]3(N)C[C@]1(N)C2 [KH] | ** (toxicities less than 25 μg/mL are represented by **)
31 | CN(C)c1cc(CNC(=O)Nc2ccc(Cl)cc2)c(O)c2c1C[C@@]1(N)C[C@@]3(N)[C@H](N(C)C)C(O)=C(C(N)=O)C(=O)[C@@]3(C#N)C(O)=C1C2=O [MW] | ** (toxicities less than 25 μg/mL are represented by **)
32 | CCc1ccc(-c2cc(N(C)C)c3c(c2O)C(=O)C2=C(O)[C@]4(C#N)C(=O)C(C(N)=O)=C(O)[C@@H](N(C)C)[C@]4(N)C[C@]2(N)C3)cc1 [LZ] | ** (toxicities less than 25 μg/mL are represented by **)
33 | CN(C)[C@@H]1C(O)=C(C(N)=O)C(=O)[C@@]2(C#N)C(O)=C3C(=O)c4c(cc(Br)c(N)c4O)[C@H](N)[C@@]3(N)[C@H](O)[C@@]12N [HY] | * (toxicities greater than >25 μg/ml are represented by *)
34 | CN(C)c1cc(NCc2ccc(OC(F)(F)F)cc2)c(O)c2c1C[C@@]1(N)C[C@@]3(N)[C@H](N(C)C)C(O)=C(C(N)=O)C(=O)[C@@]3(C#N)C(O)=C1C2=O [MQ] | ** (toxicities less than 25 μg/mL are represented by **)
35 | CN(C)c1cc(-c2ccco2)c(O)c2c1C[C@@]1(N)C[C@@]3(N)[C@H](N(C)C)C(O)=C(C(N)=O)C(=O)[C@@]3(C#N)C(O)=C1C2=O [DZ] | ** (toxicities less than 25 μg/mL are represented by **)
36 | CN(C)[C@@H]1C(O)=C(C(N)=O)C(=O)[C@@]2(C#N)C(O)=C3C(=O)c4c(O)ccc(-c5cccc(CNCc6ccccc6)c5)c4C[C@@]3(N)C[C@@]12N [HN] | ** (toxicities less than 25 μg/mL are represented by **)
37 | CC(C)CNCc1cc(N(C)C)c2c(c1O)C(=O)C1=C(O)[C@]3(C#N)C(=O)C(C(N)=O)=C(O)[C@@H](N(C)C)[C@]3(N)C[C@]1(N)C2 [ML] | * (toxicities greater than >25 μg/ml are represented by *)
38 | CN(C)[C@@H]1C(O)=C(C(N)=O)C(=O)[C@@]2(C#N)C(O)=C3C(=O)c4c(O)ccc(-c5cc6ccccc6o5)c4C[C@@]3(N)C[C@@]12N [FM] | * (toxicities greater than >25 μg/ml are represented by *)
39 | CC(=O)c1ccc(O)c2c1C[C@@]1(N)C[C@@]3(N)[C@H](N(C)C)C(O)=C(C(N)=O)C(=O)[C@@]3(C#N)C(O)=C1C2=O [GR] | * (toxicities greater than >25 μg/ml are represented by *)
40 | CN(C)c1cc(CNC(=O)c2ccco2)c(O)c2c1C[C@@]1(N)C[C@@]3(N)[C@H](N(C)C)C(O)=C(C(N)=O)C(=O)[C@@]3(C#N)C(O)=C1C2=O [SW] | * (toxicities greater than >25 μg/ml are represented by *)
41 | CN(C)[C@@H]1C(O)=C(C(N)=O)C(=O)[C@@]2(C#N)C(O)=C3C(=O)c4c(ccc(/C=C/C(=O)O)c4O)[C@H](O)[C@@]3(N)[C@H](O)[C@@]12N [AV] | ** (toxicities less than 25 μg/mL are represented by **)
